Source: patent US11246949B2, “Imaging contrast agents and uses thereof” (The Research Foundation for The State University of New York, priority 2011, dated 2022)

Columns and labels:
[1] = pH-potentiometric titrations: acid-dissociation and ligand-Fe(II) equilibrium constants; format: physicochemical; conditions: for formation constant log K (binding of macrocycle to metal ion): 100 mM NaCl
Protocol: FIG. 10. Representative pH-potentiometric titrations for Fe(L1) and Fe(L3) in 100 mM NaCl at 25° C.
Fe(II) paraCEST agents were developed by preparing ligands that stabilize Fe(II) and Ni(II), contain multiple exchangeable protons to enhance the CEST effect and form six or eight coordinate complexes to protect the Fe(II) from binding additional ligands that might complicate the CEST signal. The sexadentate ligands contained the macrocycle, 1,4,7-triazacyclononane, with three pendent groups while the octadentate ligands contained 1,4,7,10-tetraazacyclododecane and four pendent groups (FIG. 1 and FIG. 2). Pyridine pendent groups stabilize Fe(II) relative to Fe(III) (L2, L3), and amide pendent groups are stabilizing of Fe(II) (L1). For example, the pyridine groups in Fe(L3) lead to a high reduction potential of +930 mV vs. NHE. Amide groups contain exchangeable protons and have been commonly used as a basis for Ln(III) paraCEST agents. In contrast, amino pyridine pendent groups and the benzimidazole groups have exchangeable protons that are one bond further away from the Fe-coordinated nitrogen of the pyridine ring. Exchangeable protons close to the Fe(II) center as well as more remotely located protons appended to a ligand pi-system have been studied in this work in order to capitalize on both the dipolar and contact shift contributions of paramagnetic Fe(II). The strategy of using exchangeable protons that are remote from the metal ion center was explored in order to capitalize on both the dipolar and contact shift contributions of paramagnetic Fe(II). Fe(II) complexes were prepared in acetonitrile or in aqueous solution by simple addition of the free base form of the ligands to Fe(CF3SO3)2.

[2] = Ascorbate consumption (redox cycling, reactive oxygen species generation); conditions: 100 μM ascorbate, 10 μM Fe(II), 10 μM ligand, 10 mM HEPES, pH 7.4, 37° C.
[3] = Persistence of high spin Fe(II) oxidation state in aqueous solution (1H NMR, μeff); format: physicochemical; conditions: atmospheric oxygen, several days
Protocol: Effective magnetic moments are characteristic of high spin Fe(II) at 5.1 BM and 5.8 BM for Fe(L1) and Fe(L2), These were measured in 100 mM NaCl in D2O, pH 7.4, and D2O at pH 7.0, respectively. The ^1H NMR spectra of the two complexes show highly shifted proton resonances (FIGS. 4-5). There are nine non-exchangeable proton resonances for Fe(L2) consistent with trigonal prismatic geometry as observed previously for Fe(L3) and three sets of four chemically inequivalent proton resonances in the macrocycle backbone. […] The exchangeable amide and amine protons were identified by comparison of the ^1H NMR spectra of the complexes in H2O and […]. For Fe(L1), the amide protons are highly shifted downfield, appearing at 77 ppm. The amine protons of Fe(L2) are only slightly shifted and are observed at 11 ppm.
Generally, macrocyclic complexes in FIG. 1 are prepared from the macrocycle and Fe(II) salt such as FeCl2, or Fe(CF3SO3)2 in acetonitrile at room temperature with argon bubbled through the solvent. This helps to ensure that a negligible amount of O2 is present in the reaction flask. In the absence of an inert atmosphere, difficulties in maintaining the desired oxidation state may arise through mechanisms such as oxidation of the metal to Fe(III) prior to complexation with the ligand. […]

[4] = Electrochemical potential E° vs. NHE; format: physicochemical; conditions: 100 mM tetrabutylammonium hexafluorophosphate in acetonitrile
Text: In an embodiment, the compounds of the invention are stable towards chemical reaction in an oxidative environment (i.e., in the presence of biologically relevant concentrations of peroxide or oxygen). In an embodiment, the stability in an oxidative environment can be related to the reduction potential of the complex. In an embodiment, the compounds of the present invention have a reduction potential greater than 600 mV vs. NHE (Normal Hydrogen Electrode) as shown in Table 1. Generally, the compounds of the invention have a reduction potential above 800 mV vs. NHE.

[5] = Dissociation of the metal ion complex (kinetic inertness); format: physicochemical

Row | formation constant log K (binding of macrocycle to metal ion) [1] | E° vs. NHE [4] [mV] | resistance to dissociation >12 h, neutral pH [5] | Compound | Ascorbate consumption [2] | also measured
1 | 13.5 | 860 ± 9 | Moderate | NC(=O)CN1CCN(CC(N)=O)CCN(CC(N)=O)CC1.[Fe+2] [Fe(L1)] | 7.2 ± 0.96 ×10^−5 (s^−1) | Log K1 ([1]; K1 = [LH+]/([L][H+]), 1.05 mM L, 1.0 mM Fe(OTf)2, 0.10 M NaCl, 25° C.): 10.19 ± 0.11; Log K2 ([1]; K2 = [LH2 2+]/([LH+][H+]), 0.10 M NaCl, 25° C.): <2; Log K3 ([1]; K3 = [LH3 3+]/([LH2 2+][H+]), 0.10 M NaCl, 25° C.): <2; Log K Fe-L ([1]; KFeL = [FeL2+]/([Fe2+][L]), 0.10 M NaCl, 25° C.): 13.47 ± 0.25; Log K FeL-OH ([1]; KFeL-OH = [FeL-OH+]/([FeL2+][OH−]), 0.10 M NaCl, 25° C.): 9.43 ± 0.18; Log K Fe-LH ([1]; KFeLH = [FeLH3+]/([FeL2+][H+]), 0.10 M NaCl, 25° C.): 5.54 ± 0.14; resistance to oxidation to Fe(III) [3]: resistant to oxidation to Fe(III); % dissociation over 12 hours ([5]; 12 hours): <9%
2 | – | – | good | Cc1nc(CN2CCN(Cc3ccc(N)c(C)n3)CCN(Cc3ccc(N)c(C)n3)CC2)ccc1N.[Fe+2] [Fe(L2)] | – | resistance to oxidation to Fe(III) [3]: resistant to oxidation to Fe(III)
3 | – | 390 | – | O=C([O-])CN(CCN(CC(=O)[O-])CC(=O)[O-])CC(=O)[O-].[Fe+3] [Fe(EDTA), reference compound] | 77 ± 13 ×10^−5 (s^−1) | –
4 | – | – | good | Nc1cccc(CN2CCN(Cc3cccc(N)n3)CCN(Cc3cccc(N)n3)CC2)n1.[Fe+2] [Fe(L8)] | – | –
5 | 7.5 | 800 ± 5 | excellent | NC(=O)CN1CCN(CC(N)=O)CCN(CC(N)=O)CCN(CC(N)=O)CC1.[Fe+2] [Fe(L4)] | 4.0 ± 1.0 ×10^−5 (s^−1) | % dissociation over 12 hours ([5]; 12 hours): 0%; dissociation after incubation ([5]; 12 hours, 37° C., pH 4 or neutral pH with five equivalents of CuCl2 or ZnCl2): no dissociation
6 | – | – | good | NC(=O)CN1CCN(CC(N)=O)CCN(CC(N)=O)CC1.[Ni+2] [Ni(L1)] | – | inertness towards dissociation in solution ([5]; neutral and acidic pH, at least 24 hours): inert towards dissociation
7 | 9.3 | – | Moderate | CC(O)CN1CCN(CC(C)O)CCN(CC(C)O)CCN(CC(C)O)CC1.[Fe+2] (centres unmarked) [Fe(L6)] | – | –
8 | – | – | moderate | [Fe+2].c1ccc2[nH]c(CN3CCN(Cc4nc5ccccc5[nH]4)CCN(Cc4nc5ccccc5[nH]4)CC3)nc2c1 [Fe(L5)] | – | –
9 | – | – | moderate | CC(O)CN1CCNCCN(CC(C)O)CCNCC1.[Fe+2] (centres unmarked) [Fe(L7)] | – | –
